62 molecules from article PMC5607274, “An iterative compound screening contest method for identifying target protein inhibitors using the tyrosine-protein kinase Yes” (Scientific Reports, 2017) can be followed below.

The target of the first assay is T1, human recombinant Yes [a.a. 2–543 (end)] (Homo sapiens, UniProt P07947).
T1 construct: human recombinant Yes [a.a; 2–543 (end)]; purchased BPS Bioscience 40488
T1 sequence (P07947 2-543): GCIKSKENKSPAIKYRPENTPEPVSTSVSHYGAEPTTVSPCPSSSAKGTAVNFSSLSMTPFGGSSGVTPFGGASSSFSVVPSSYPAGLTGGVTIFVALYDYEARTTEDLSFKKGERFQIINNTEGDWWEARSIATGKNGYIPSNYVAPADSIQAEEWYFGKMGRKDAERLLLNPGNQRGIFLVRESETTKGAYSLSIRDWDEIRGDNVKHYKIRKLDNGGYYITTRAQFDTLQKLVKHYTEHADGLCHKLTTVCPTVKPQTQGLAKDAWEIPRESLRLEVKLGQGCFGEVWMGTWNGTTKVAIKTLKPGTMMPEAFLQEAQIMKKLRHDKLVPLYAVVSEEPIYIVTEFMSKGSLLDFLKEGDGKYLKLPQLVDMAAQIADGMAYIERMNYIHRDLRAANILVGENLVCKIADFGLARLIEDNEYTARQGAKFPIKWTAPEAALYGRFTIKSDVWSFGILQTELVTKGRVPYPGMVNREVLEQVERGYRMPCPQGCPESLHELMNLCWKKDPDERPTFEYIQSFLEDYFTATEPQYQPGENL
The experiment in a line: ADP-Glo kinase assay, inhibition rates of Yes phosphorylation activity (first and second screening). It counts as biochemical. As to conditions: first screening; mean of n = 4 wells; 10 μmol L−1 compound. In a few lines:
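Hits from a first pass were rescreened after re-dissolution from fresh powder. The first pass reported the mean inhibition rate of quadruplicate wells per compound. Activity was that of recombinant human Yes [a.a. 2–543] kinase, read out with the ADP-Glo ADP-detection method.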
On the technique in general: ADP-Glo first removes unused ATP, then detects ADP through luciferase.
Take `CC1CCN(c2nc(N)nc3nc[nH]c23)CCN1Cc1ccccc1` (stereo not shown) [Compound Z1675288656]: the “First screening IR (inhibition rate)” value came to 48%.

On to `Cc1nc2ccccc2c(=O)n1/N=C/c1c2ccccc2cc2ccccc12` [Compound Z49732101], for which the “First screening IR (inhibition rate)” value amounted to 2%.

On to `Clc1ccc(/C=C2/CCCc3c2nc2ncnn2c3-c2ccc(Cl)cc2)cc1` [Compound Z56784275], for which the “First screening IR (inhibition rate)” value was -10%.

Regarding `Cc1nn(C)c2nc(-c3ccccc3)cc(C(=O)Nc3ccc4[nH]c(=O)[nH]c4c3)c12` [Compound Z228695802], the “First screening IR (inhibition rate)” value is on record as -6%.

Turning to `O=C(NCCc1nc2ccccc2[nH]1)c1cc(-c2ccccc2)nc2c1cnn2Cc1ccco1` [Compound Z228153102], the “First screening IR (inhibition rate)” value is on record as 7%.

As to `CN(C1CCS(=O)(=O)C1)S(=O)(=O)c1ccc(Cl)c(Cl)c1` (stereo not shown) [Compound Z71311982], the “First screening IR (inhibition rate)” value is -2%.

With `CCC1CN(C(=O)OCc2ccccc2)C(CC)CN1C(=O)CCc1cnn(C)c1` (stereo not shown) [Compound Z1251624666], the “First screening IR (inhibition rate)” value is -2%.

`COc1ccc(N(C)C(=O)c2[nH]nc(-c3ccccc3)c2Br)cn1` [Compound Z934680220]: the “First screening IR (inhibition rate)” value is -1%.

For `COc1cccc(NC(=O)CN(C)CC(=O)Nc2cc(Cl)ccc2C#N)c1` [Compound Z46385937], the “First screening IR (inhibition rate)” value turned out to be 3%.

Take `CN(C)C1(CNC(=O)CNC(=O)c2cc(F)cc(F)c2)CCOCC1` [Compound Z1199845522]: the “First screening IR (inhibition rate)” value is reported as 6%.

For `CS(=O)(=O)c1ccccc1S(=O)(=O)Cl` [Compound Z271096440], the “First screening IR (inhibition rate)” value stood at 59%.

In the case of `CCOC(=O)N(C)c1ccc(Nc2nccc(C(F)(F)F)n2)cc1` [Compound Z805455424], the “First screening IR (inhibition rate)” value is reported as -19%.

Regarding `Cc1ccc(-n2nc(C)c3c(C(=O)Nc4nc(CN5CCOCC5)cs4)cc(-c4ccccc4)nc32)cc1` [Compound Z28032810], the “First screening IR (inhibition rate)” value is on record as -1%.

For the molecule `CCn1c(CNc2ccc3c(C)cc(=O)oc3c2)nc2cc(S(=O)(=O)N3CCCCC3)ccc21` [Compound Z139671368], the “First screening IR (inhibition rate)” value is -9%.

For `CCCOc1ccc(OCC(=O)Nc2ccc3oc(C)nc3c2)cc1` [Compound Z70909650], the “First screening IR (inhibition rate)” value amounted to 11%.

Regarding `Cl.Clc1ccc(-c2cc(-c3ccccc3)c3ccccc3n2)cc1` [Compound Z48951047], the “First screening IR (inhibition rate)” value is reported as 8%.

On to `Cc1ccc(C)c(S(=O)(=O)CCN(C)Cc2nc3ccccc3c(=O)[nH]2)c1` [Compound Z46302631], for which the “First screening IR (inhibition rate)” value is on record as -9%.

For `CC(C)c1ccc(N2C(=O)Cc3c2nc(N)c2c(N)nc(N4CCCC4)c(C#N)c32)cc1` [Compound Z55589601], the “First screening IR (inhibition rate)” value came to 6%.

`Cc1cccc(C(C)C)c1NC(=O)CSc1nc2ccc(Cl)cc2c(=O)n1CC(C)C` [Compound Z16658902]: the “First screening IR (inhibition rate)” value is -5%.

Consider `CCN(C1CCS(=O)(=O)C1)S(=O)(=O)c1ccc(Br)cc1Cl` (stereo not shown) [Compound Z45467139], for which the “First screening IR (inhibition rate)” value is reported as 2%.

In the case of `CC1(CCc2ccccc2)NC(=O)N(NC(=O)c2ccc(-n3cnc4ccccc43)cc2)C1=O` (stereo not shown) [Compound Z136752996], the “First screening IR (inhibition rate)” value came out at 9%.

With `CCn1ncc2c(C(=O)N3CCN(CC(=O)Nc4cccc(C)c4C)CC3)cc(-c3ccccc3)nc21` [Compound Z224933090], the “First screening IR (inhibition rate)” value is reported as -4%.

Take `COc1ccc2[nH]c(C)c(C(=O)NCC(C)(C)c3cccc(F)c3)c2c1` [Compound Z1482480186]: the “First screening IR (inhibition rate)” value was 70%.

In the case of `CC(=O)[C@@H]1C[C@H](CC(=O)NCCc2ccn(-c3ccc(F)cc3)n2)C1(C)C` [Compound Z1675157483], the “First screening IR (inhibition rate)” value was found to be 5%.

With `CC(C)(C)n1nc(C(=O)Nc2cccc(C3SCCCS3)c2)cc1C1CC1` [Compound Z735448522], the “First screening IR (inhibition rate)” value was determined as 2%.

On to `CN(C)c1ccc(/C=c2/s/c(=C/C(=O)C(C)(C)C)[nH]c2=O)cc1` [Compound Z46615661], for which the “First screening IR (inhibition rate)” value is recorded as -8%.

Turning to `NC(=O)c1cnc(NCc2ccnc(N3CCCCC3)c2)c(Cl)c1` [Compound Z729056808], the “First screening IR (inhibition rate)” value amounted to 2%.

On to `Oc1c(-c2nc3ccccc3c3ccccc23)sc2ncccc12` [Compound Z107727738], for which the “First screening IR (inhibition rate)” value is recorded as 43%.

Turning to `Fc1ccc(-c2n[nH]c(CNc3cncc(Cl)n3)n2)cc1` [Compound Z1309541011], the “First screening IR (inhibition rate)” value is -11%.

With `Cc1nn(C)c2nc(C3CC3)cc(C(=O)Nc3ccccc3O)c12` [Compound Z235446856], the “First screening IR (inhibition rate)” value was determined as 27%.

`CN(CC(=O)N1N=C(c2ccco2)CC1c1cccs1)Cc1nc2ccccc2c(=O)[nH]1` (stereo not shown) [Compound Z52671252]: the “First screening IR (inhibition rate)” value is on record as -3%.

Consider `CC(C)(C)NC(=O)CN1CCN(C(=O)CSc2nc3ccccc3c(=O)n2-c2ccccc2)CC1` [Compound Z65695011], for which the “First screening IR (inhibition rate)” value came out at 57%.

For the molecule `Cc1ccc(-n2c(-c3ccccc3)cn3c4c(=O)n(CCN5CCOCC5)c(=O)n(C)c4nc23)cc1` [Compound Z237731508], the “First screening IR (inhibition rate)” value is 14%.

For the molecule `O=S(=O)(c1ccccc1Cl)N1CCN(Cc2nc(-c3cccc(C(F)(F)F)c3)no2)CC1` [Compound Z224344580], the “First screening IR (inhibition rate)” value is -5%.

Regarding `CS(=O)(=O)c1ccc(S(=O)(=O)N2CCCC2)cc1` [Compound Z285664940], the “First screening IR (inhibition rate)” value came out at 8%.

Consider `N#CC(C(=O)CCc1ccc(F)cc1)c1nc2cc(Cl)ccc2c(=O)[nH]1` (stereo not shown) [Compound Z594627070], for which the “First screening IR (inhibition rate)” value is on record as 1%.

For `NS(=O)(=O)c1ccc2nc(-c3ccc4c(c3)-c3ccccc3C4)cn2c1` [Compound Z82176567], the “First screening IR (inhibition rate)” value worked out at 27%.

As to `O=C(c1ccoc1)N1CCN(c2ncnc3cc(-c4ccc(F)cc4)sc23)CC1` [Compound Z373317194], the “First screening IR (inhibition rate)” value was 48%.

As to `CN(C)C(=O)Cn1cc(NC(=O)c2ccc3cc[nH]c3c2)cn1` [Compound Z1067269008], the “First screening IR (inhibition rate)” value was -5%.

As to `CNc1nc(NC2CCOC2c2ccc(F)c(F)c2)ncc1Br` (stereo not shown) [Compound Z1765170433], the “First screening IR (inhibition rate)” value was found to be 3%.

As to `CC(C)(C)OC(=O)N1CC(NC(=O)c2cc3c(F)cc(Br)cc3[nH]2)C1` [Compound Z1231909655], the “First screening IR (inhibition rate)” value is -12%.

For `Cc1ccc(S(=O)(=O)NC(=O)c2cc(C)n(CCCn3ccnc3)c2C)cc1` [Compound Z55892329], the “First screening IR (inhibition rate)” value was -11%.

As for `Cc1cc(C)c(NC(=O)CNC(=O)COc2ccccc2C(=O)N2CCCCC2)c(C)c1` [Compound Z25138787], the “First screening IR (inhibition rate)” value is reported as -1%.

As to `CC1CN(C(C)(C)CNC(=O)c2ccc(NS(=O)(=O)c3ccccc3)cc2)CC(C)O1` (stereo not shown) [Compound Z226329302], the “First screening IR (inhibition rate)” value stood at 6%.

Regarding `O=[N+]([O-])c1cc2c(c(CN(Cc3ccccc3)S(=O)(=O)c3cccc(C(F)(F)F)c3)c1)OCOC2` [Compound Z25980301], the “First screening IR (inhibition rate)” value was 7%.

As to `CC1CCN(C(=O)c2nc3ncc(Br)cn3n2)CC(C)C1` (stereo not shown) [Compound Z1500127626], the “First screening IR (inhibition rate)” value came to 1%.

As for `CC1CC(CNC(=O)c2ccc(O)cc2F)CN1Cc1ccccc1` (stereo not shown) [Compound Z1735017324], the “First screening IR (inhibition rate)” value worked out at 2%.

Regarding `COc1ccccc1Nc1ncnc(N)n1` [Compound Z56799636], the “First screening IR (inhibition rate)” value was -3%.

In the case of `N#Cc1cccc(NC(=O)NCCNC(=O)c2c(F)cccc2F)c1` [Compound Z1189154512], the “First screening IR (inhibition rate)” value is -6%.

As for `CCc1nnc2n1CCN(CC(=O)NC1CCCc3ccccc31)C2` (stereo not shown) [Compound Z1139436344], the “First screening IR (inhibition rate)” value is reported as -6%.

In the case of `CCn1ncc2c(C(=O)N(C)Cc3ccc(SC)cc3)cc(-c3ccccc3)nc21` [Compound Z224588706], the “First screening IR (inhibition rate)” value is recorded as -5%.

For the molecule `COc1ccccc1C(=O)Nc1ccc(Nc2nc(-c3ccccc3)c3cc(C)ccc3n2)cc1` [Compound Z111781008], the “First screening IR (inhibition rate)” value was 8%.

As for `CC(C)S(=O)(=O)CCS(=O)(=O)Cc1ccc(Cl)cc1` [Compound Z1347350562], the “First screening IR (inhibition rate)” value is on record as -14%.

`CS(=O)(=O)c1ccc(N2CCC2)c(S(C)(=O)=O)c1` [Compound Z666133744]: the “First screening IR (inhibition rate)” value stood at 8%.

`CC(C)n1ncc2c(C(=O)N3CCN(CC(=O)N4CCOCC4)CC3)cc(-c3ccccc3)nc21` [Compound Z73457343]: the “First screening IR (inhibition rate)” value came out at 7%.

As for `COc1cc(NC(=O)COC(=O)c2cc(-c3cccs3)nc3onc(C)c23)cc(OC)c1` [Compound Z218834328], the “First screening IR (inhibition rate)” value was 6%.

`C#CCN(C1CCS(=O)(=O)C1)S(=O)(=O)c1ccccc1F` (stereo not shown) [Compound Z734126534]: the “First screening IR (inhibition rate)” value is listed as -10%.

Turning to `Cn1ccnc1C(O)(CCNC(=O)c1cccc(-c2cnc3[nH]c(=O)n(C)c3c2)c1)C(F)(F)F` (stereo not shown) [Compound Z1723428243], the “First screening IR (inhibition rate)” value is listed as 17%.

On to `Cc1noc(C)c1COc1cccc(C(=O)N2CCN(Cc3cc(=O)n4ccsc4n3)CC2)c1` [Compound Z147054608], for which the “First screening IR (inhibition rate)” value amounted to 14%.

Consider `COc1cccc(-c2cc(-c3ccccc3)c3cc(Cl)ccc3n2)c1.Cl` [Compound Z48950797], for which the “First screening IR (inhibition rate)” value is on record as 1%.

With `N#CC(C#N)=CC1=C2OC(c3ccccc3)=CC(c3ccccc3)=C2CCC1` [Compound Z56760799], the “First screening IR (inhibition rate)” value is listed as 14%.

Consider `Cc1ccc(-c2cc(C(=O)NC(c3ccccc3F)c3nccn3C)c3cnn(C(C)C)c3n2)s1` (stereo not shown) [Compound Z225919834], for which the “First screening IR (inhibition rate)” value is listed as -2%.

The assay is the same for the next values; noted with them: second screening, dissolved from fresh powder; n = 4; 10 μmol L−1 compound.
On to `CS(=O)(=O)c1ccccc1S(=O)(=O)Cl` [Compound Z271096440], for which the “Second screening IR (inhibition rate)” value is listed as 2%.

As to `Oc1c(-c2nc3ccccc3c3ccccc23)sc2ncccc12` [Compound Z107727738], the “Second screening IR (inhibition rate)” value turned out to be 24%.
